{"source": "patent US20240261375A1", "about": "“PHARMACEUTICAL COMPOSITION FOR TREATING OR PREVENTING DISORDER ASSOCIATED WITH ADMINISTRATION OF ANTICANCER AGENT” (LTT BIO-PHARMA CO., LTD., priority 2021, published 2024)", "system": "OXA-induced allodynia model rats", "experiment": "Cold stimulation (acetone) test in OXA-induced allodynia model rats", "format": "in vivo, rat", "conditions": "OXA 10 mg/kg i.p. Days 1 and 2; PC-SOD 1 mg/kg caudal vein, prophylactic; FIG. 2", "procedure": "Five-week-old male SD rats (from 200 to 400 g) were used as laboratory animals, and OXA was administered into the peritoneal cavity of rats at a dose of 10 mg/kg. A total of two doses were given (Days 1 and 2). A solvent for OXA, i.e., a 5% glucose solution, was similarly administered to a control group.\nLaboratory animals were divided into three groups (n=8 per group): a control group, an OXA administration group, and a group receiving administration of OXA and PC-SOD 1 mg/kg (OXA+PC-SOD administration group). For the OXA+PC-SOD administration group, PC-SOD was administered into the caudal vein from 15 minutes after administration of OXA as prophylactic administration. A total of two doses were given (Days 1 and 2). A solvent for PC-SOD was similarly administered to the control group and the OXA administration group.\nRats were placed in a container with a wire net bottom and acclimatized for 30 minutes, and then 0.1 mL of acetone was sprayed onto their hindlimb by using a spray for an organic solvent (No. 3530, Furupla Co., Ltd.) to give a cold stimulus by utilizing a cooling action at the time of vaporization of acetone. […] Specifically, the responses were assessed by scoring with four levels (Scores 0, 1, 2, and 3). Score 0 was to be given if animals were unresponsive as in a resting state. […]"}
{"substance": "lecithinized superoxide dismutase [PC-SOD]", "values": [{"measurement": "increase in score for cold stimulus (acetone test)", "value": "significantly suppressed"}]}
